Measured values from PMC8707700, “Ru(III) Complexes with Lonidamine-Modified Ligands” (International Journal of Molecular Sciences, 2021).
Where two headings read alike, the source gives them in different places.

Tests used:
[1] = tested on: A549; assay: Antiproliferative activity, MTT assay; type: cell-based, human; conditions: read-out: IC50, µM A549
Protocol: (§1) The antiproliferative activity of new ligands and complexes was determined against human cell lines, including colon adenocarcinoma SW480, breast adenocarcinoma MCF-7, lung adenocarcinoma A549, neuroblastoma SHSY5Y, and non-tumourigenic HaCaT (Table 4). In general, complexes were more cytotoxic compared to ligands, lonidamine, and, in some cases, cisplatin. […] We chose this compound and the synthetically accessible complex 16 for mechanistic studies.
(§2) The antiproliferative activity was studied by MTT assays as published previously. For flow cytometry studies, cells were plated into 6-well plates (Eppendorf, Germany; 4 × 10^5 cells in 2 mL of DMEM) and incubated for 24 h. Solutions of complexes in DMSO were prepared immediately prior to the day of the experiments. Cells were treated with either 20 µM of cisplatin, 50 µM of 16, or 20 µM of 20. Concentrations corresponded to two-fold IC50 values based on MTT assays. Cells were incubated for 24 h, pooled, washed with cold PBS, and resuspended in DMEM. Aliquots of cells were processed as recommended in the Muse Annexin V&Dead Cell Kit or Muse Caspase-3/7 Kit (Luminex). Measurements were carried out on a Muse Cell Analyser, Luminex corp., TX, USA.

[2] = tested on: HaCaT; assay: Antiproliferative activity, MTT assay; type: cell-based, human; conditions: read-out: IC50 HaCaT
Protocol: as §1, §2

[3] = tested on: MCF-7; assay: Antiproliferative activity, MTT assay; type: cell-based, human; conditions: read-out: IC50, µM MCF-7
Protocol: as §1, §2

[4] = tested on: SW480; assay: Antiproliferative activity, MTT assay; type: cell-based, human; conditions: read-out: IC50, µM SW480
Protocol: as §1, §2

[5] = Cyclic voltammetry (redox potentials); type: physicochemical; conditions: Pt and GC electrodes, CH3CN and CH2Cl2, any applied potential
Protocol: The redox behaviour of ligand 10 and complexes 15–20 was studied on Pt and glassy carbon (GC) electrodes in CH3CN and CH2Cl2.
All electrochemical measurements were carried out under argon at room temperature. Cyclic voltammetry (CV) experiments were performed in KO264 PAR three-electrode microcells in CH3CN solution with 0.05 M of Bu4NBF4 as a supporting electrolyte using a IPC-Win potentiostat. The number of transferred electrons was determined by comparing to the height of the […] wave for the same concentration. A glassy carbon (GC) working electrode (diameter 2 mm), a platinum wire auxiliary electrode, and an aqueous Ag/AgCl/KCl (sat.) reference electrode was used. Solvents were routinely distilled and dried prior to use.

[6] = tested on: SH-SY5Y; assay: Antiproliferative activity, MTT assay; type: cell-based, human; conditions: 72 h exposure, mean ± SD
Protocol: as §1, §2

[7] = tested on: HCT116 cells; assay: Annexin V/7-AAD flow cytometry (Muse Annexin V & Dead Cell Kit); type: cell-based; conditions: HCT116, 24 h, 2xIC50; one representative experiment
Protocol: Mechanisms of cell death, that is, Annexin V/7-AAD reactivity and caspase 3/7 activation, were determined for 16 and 20 in HCT116 cells using the Muse® Annexin V & Dead Cell Kit (Luminex corp., Austin, TX, USA) and flow cytometry. Cells were incubated with 16, 20, or cisplatin (reference drug) for 24 h at concentrations corresponding to 2xIC50 values (obtained in MTT assays; Table 4). The percentages of Annexin V-positive cells in response to 16 and 20 were higher than cisplatin (Figure 8). Complex 20 with the C12 linker induced Annexin V positivity slightly more efficiently than 16 with the C3 linker (27.4 ± 2.1% vs. 19.7 ± 0.6%).
as §2

[8] = Stability of Ru(III) complexes in phosphate buffer by UV-vis spectrophotometry; type: physicochemical; conditions: 20 mM phosphate buffer pH 7.4, 100 mM NaCl, 37 °C; mean ± SD, three experiments
Protocol: The stability of Ru(III) complexes (15–20) was investigated in a solution resembling physiological conditions (20 mM of phosphate buffer, pH 7.4, and 100 mM of NaCl at 37 °C) by UV-vis spectrophotometry (Table 1). The half-transformation time t1/2 was calculated based on changes in the electronic absorption spectrum (Figure S1) and defined as the value of t at the Alin/2 point. ΔA(t) was plotted against λmax; the initial section was approximated as a linear function.
The stability of Ru(III) complexes was studied by electron absorption spectroscopy in 20 mM of phosphate buffer, pH 7.4, and 100 mM of NaCl. The working solution (2 mL, 200 μM complex) was prepared by diluting 10 μL of the original 40 mM solution in DMSO and 1.99 mL of phosphate buffer. UV-vis spectra were recorded every 60 s in the range of 280–600 nm at 37 °C. The half-transformation time was t1/2. For λmax, ΔA(t) was plotted, where ΔA = A0–Ai, an initial section, was approximated as a linear function. At ΔAline./2 point calculated as t = t1/2.

[9] = Lipophilicity, shake-flask method water/n-octanol; type: physicochemical; conditions: UV-vis, mean ± SD
Protocol: The lipophilicity of complexes 15–20 was studied using a standard shake-flask method in a mixture of water/n-octanol. For the quantification of compounds in the water phase, UV-vis spectrophotometry was used. […] Among other complexes, as expected, 20 was the most lipophilic (Table 1).
N-octanol was saturated with water and with water saturated with n-octanol; mixture400 mL of n-octanol (water) and 100 mL of water (n-octanol) was stirred for 24 h; and then fractions were separated. The sample of the complex was dissolved in n-octanol and a series of solutions in octanol (300, 250, 3 × 200, 150, 100, and 50 μM) was prepared. Absorption spectra were recorded and the calibration curve for maximum absorption was plotted. From 200 μM solutions, the mixtures with water were prepared (1:1, 1:2, 2:1 v/v) and shaken for 15 min. The organic phase was separated by centrifugation. The concentration of the complex in n-octanol was determined from the calibration curve and lipophilicity (logP) was calculated as log P = log [(C0–Caq)/Caq].

Compound	IC50 ([1]; Homo sapiens, A549, 72 h)	IC50 ([2]; Homo sapiens, HaCaT, 72 h)	IC50 ([3]; Homo sapiens, MCF7, 72 h)	IC50 ([4]; Homo sapiens, SW480, 72 h)	melting point	IC50 ([1]; MTT, 72 h exposure, mean ± SD)	IC50 ([3]; MTT, 72 h exposure, mean ± SD)	IC50 [6]	IC50 ([4]; MTT, 72 h exposure, mean ± SD)	t1/2 (half-transformation time) [8]	also measured
O=C(NCCn1ccnc1)c1nn(Cc2ccc(Cl)cc2Cl)c2ccccc12 [Compound 9, N-(2-(1H-Imidazol-1-yl)ethyl)-1-(2,4-dichlorobenzyl)-1H-indazole-3-carboxamide]	50 ± 16 µM	23 ± 2 µM	35 ± 6 µM	48 ± 10 µM	120 to 121 °C						
O=C(NCCCn1ccnc1)c1nn(Cc2ccc(Cl)cc2Cl)c2ccccc12 [Compound 10, N-(3-(1H-Imidazol-1-yl)propyl)-1-(2,4-dichlorobenzyl)-1H-indazole-3-carboxamide]	> 90 µM	39 ± 4 µM	> 90 µM	> 90 µM	121 to 122 °C						redox transitions of the ligand [5]: redox transitions were not observed
O=C(NCCCCn1ccnc1)c1nn(Cc2ccc(Cl)cc2Cl)c2ccccc12 [Compound 11, N-(4-(1H-Imidazol-1-yl)butyl)-1-(2,4-dichlorobenzyl)-1H-indazole-3-carboxamide]	25 ± 7 µM	45 ± 3 µM	22 ± 6 µM	28 ± 8 µM	98 to 100 °C						
O=C(NCCCCCCn1ccnc1)c1nn(Cc2ccc(Cl)cc2Cl)c2ccccc12 [Compound 12, N-(6-(1H-Imidazol-1-yl)hexyl)-1-(2,4-dichlorobenzyl)-1H-indazole-3-carboxamide]	24 ± 10 µM	40 ± 4 µM	17 ± 2.5 µM	16 ± 6 µM							
O=C(NCCCCCCCCn1ccnc1)c1nn(Cc2ccc(Cl)cc2Cl)c2ccccc12 [Compound 13, N-(8-(1H-Imidazol-1-yl)octyl)-1-(2,4-dichlorobenzyl)-1H-indazole-3-carboxamide]	15 ± 6 µM	45 ± 2 µM	10 ± 2 µM	> 90 µM							
O=C(NCCCCCCCCCCCCn1ccnc1)c1nn(Cc2ccc(Cl)cc2Cl)c2ccccc12 [Compound 14, N-(12-(1H-Imidazol-1-yl)dodecyl)-1-(2,4-dichlorobenzyl)-1H-indazole-3-carboxamide]	15 ± 2.2 µM		20.8 ± 4.7 µM	8.4 ± 1.6 µM	86 to 88 °C						
N.N.[Cl][Pt][Cl] [cisplatin, reference compound]						23 ± 6.5 µM	> 30 µM	9.5 ± 0.1 µM	21.7 ± 0.5 µM		IC50 ([2]; MTT, 72 h exposure, non-tumourigenic cells, mean ± SD): 10 ± 5 µM; early apoptosis (Annexin V/7-AAD) [7]: 4%; late apoptosis (Annexin V/7-AAD) [7]: 8%; live cells (Annexin V/7-AAD) [7]: 88%; necrosis (Annexin V/7-AAD) [7]: 0%
O=C(O)c1nn(Cc2ccc(Cl)cc2Cl)c2ccccc12 [lonidamine, 1-(2,4-dichlorobenzyl)-1H-indazole-3-carboxylic acid]											IC50 ([1]; Homo sapiens, A549, MTT, 72 h exposure, mean ± SD): > 90 µM; IC50 ([2]; Homo sapiens, HaCaT, MTT, 72 h exposure, non-tumourigenic cells, mean ± SD): 3 ± 1 µM; IC50 ([3]; Homo sapiens, MCF7, MTT, 72 h exposure, mean ± SD): 30 ± 10 µM; IC50 ([6]; Homo sapiens, SH-SY5Y): > 30 µM; IC50 ([4]; Homo sapiens, SW480, MTT, 72 h exposure, mean ± SD): > 90 µM
Na[trans-Ru(DMSO)(C20H17Cl2N5O)Cl4] [Compound 15]						> 30 µM	20.4 ± 0.1 µM	25.8 ± 4.5 µM	21.4 ± 1.8 µM	6 ± 0.333 min	
Na[trans-Ru(DMSO)(C22H21Cl2N5O)Cl4] [Compound 17]						> 30 µM	> 30 µM	27.7 ± 3.3 µM	21 ± 1.8 µM	6 ± 0.333 min	
Na[trans-Ru(DMSO)(C24H25Cl2N5O)Cl4] [Compound 18]						12.9 ± 1 µM	22 ± 0.7 µM	5.1 ± 2.5 µM	19.6 ± 3.9 µM	10.8 ± 0.5 min	Log P [9]: 0.6 ± 0.1
Na[trans-Ru(DMSO)(C26H29Cl2N5O)Cl4] [Compound 19]						5.9 ± 2.6 µM	17.1 ± 0.3 µM	2.64 ± 1.5 µM	9.3 ± 0.1 µM	23.17 ± 1.17 min	
